Measurements from US20110173718A1, “HERBICIDE TOLERANT PLANTS” (SYNGENTA CROP PROTECTION, INC., priority 2008, published 2011).

Columns and labels:
[1] = target: T1, Arabidopsis HST (Arabidopsis thaliana, UniProt Q1ACB3); assay: HST total extraction (non TLC) assay, recombinant Arabidopsis HST from insect cells; type: biochemical
T1 construct: GST (factor Xa cleavage site) (N); made in house; host or cells: Sf9 insect cells (baculovirus, pAcG3X), membrane fraction
T1 sequence (Q1ACB3 70-386): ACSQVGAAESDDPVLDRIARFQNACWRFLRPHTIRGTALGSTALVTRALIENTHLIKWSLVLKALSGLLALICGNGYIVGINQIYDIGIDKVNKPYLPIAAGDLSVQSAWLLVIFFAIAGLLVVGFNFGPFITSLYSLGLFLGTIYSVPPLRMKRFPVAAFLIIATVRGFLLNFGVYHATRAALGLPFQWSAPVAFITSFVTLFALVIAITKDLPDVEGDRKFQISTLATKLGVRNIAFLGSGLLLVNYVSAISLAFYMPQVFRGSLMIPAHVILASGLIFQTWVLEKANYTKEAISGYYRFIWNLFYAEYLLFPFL

[2] = tested on: weeds; assay: Glasshouse weed control, HST inhibitors alone and with A22, post-emergence; type: in vivo; details: 336 h, 14 DAT, single replicate, read-out: % control score, Obs; for pest or weed control at 15.625 g/ha: 15.625 g/ha alone; for pest or weed control at 62.5 g/ha: 62.5 g/ha alone; for pest or weed control at 250 g/ha: 250 g/ha alone
Protocol: (§1) In a further test, the results of which are depicted in tables 18 and 19, weed seeds are planted out in trays containing 50% peat/50% John Innes no. 3 soil and grown in the glass house at 24-27 C day; 18-21 C night and approximately a 15 h photoperiod. Humidity is ˜65% and light levels at bench level are up to 2 mmol/m^2. Again all spray chemicals are dissolved in 0.2% X77 surfactant and sprayed from a boom on a track sprayer moving at 2 mph with the nozzle set about 2 inches above the plant tops. The spray volume is […]. Sprays are carried out both pre-emergence and post-emergence over small plants at about 7-12 d post-emergence. Plants are assessed at 14 DAT with herbicidal damage scored on a scale from 0 to 100%. The HPPD inhibiting herbicide is compound A22 (4-hydroxy-3-[[2-(2-methoxyethoxy)methyl]-6-(trifluoromethyl)-3-pyridinylicarbonyl]-bicyclo[3.2.1]oct-3-en-2-one) which is sprayed at 2 g/ha both alone and in mixture with various HST herbicides. Results and spray rates are depicted in Tables 18 and 19. Again the Colby formula has been used to calculate synergy scores observed following treatment with the mixture based on the results obtained with the single components alone. Positive synergy is observed between the HPPD herbicide and a wide variety of HST inhibitor herbicides applied both pre and postemergence across a variety of weeds.

[3] = tested on: weeds; assay: Glasshouse weed control, HST inhibitors alone and with A22, pre-emergence; type: in vivo; details: 336 h, 14 DAT; for pest or weed control at 15.625 g/ha: HST inhibitor rate 15.625 g/ha; for pest or weed control at 62.5 g/ha: HST inhibitor rate 62.5 g/ha; for pest or weed control at 250 g/ha: HST inhibitor rate 250 g/ha
Protocol: as §1

[4] = BRAPL, read-out: BRAPL Obs, % control score
[5] = PANMI, read-out: PANMI Obs, % control score
[6] = SIDSP, read-out: SIDSP Obs, % control score
[7] = Digitaria sanguinalis, DIGSA, read-out: DIGSA Obs, % control score
[8] = Echinochloa crus-galli, ECHCG, read-out: ECHCG Obs, % control score
[9] = Setaria faberi, SETFA, read-out: SETFA Obs, % control score

Row | SMILES | Estimated IC50 (ppm) [1] [ppm] | pest or weed control at 15.625 g/ha ([2]; BRAPL) [%] | pest or weed control at 62.5 g/ha ([2]; BRAPL) [%] | pest or weed control at 250 g/ha ([2]; BRAPL) [%] | pest or weed control at 15.625 g/ha ([2]; PANMI) [%] | pest or weed control at 62.5 g/ha ([2]; PANMI) [%] | pest or weed control at 250 g/ha ([2]; PANMI) [%] | pest or weed control at 15.625 g/ha ([2]; SIDSP) [%] | pest or weed control at 62.5 g/ha ([2]; SIDSP) [%] | pest or weed control at 250 g/ha ([2]; SIDSP) [%] | pest or weed control at 15.625 g/ha ([2]; Digitaria sanguinalis, DIGSA) [%] | pest or weed control at 62.5 g/ha ([2]; Digitaria sanguinalis, DIGSA) [%] | pest or weed control at 250 g/ha ([2]; Digitaria sanguinalis, DIGSA) [%] | pest or weed control at 15.625 g/ha ([2]; Echinochloa crus-galli, ECHCG) [%] | pest or weed control at 62.5 g/ha ([2]; Echinochloa crus-galli, ECHCG) [%] | pest or weed control at 250 g/ha ([2]; Echinochloa crus-galli, ECHCG) [%] | pest or weed control at 15.625 g/ha ([2]; Setaria faberi, SETFA) [%] | pest or weed control at 62.5 g/ha ([2]; Setaria faberi, SETFA) [%] | pest or weed control at 250 g/ha ([2]; Setaria faberi, SETFA) [%] | pest or weed control at 15.625 g/ha [3, 4] [%] | other results
1 | CC1=NN(C)C(=O)C(c2c(C)cc(C)cc2C)C1=O (centres unmarked) [Compound 6.1] | 63 | 10 | 40 | 75 | 2 | 50 | 80 | 5 | 15 | 20 | 0 | 10 | 30 | 0 | 5 | 50 | 0 | 20 | 70 | 0 | pest or weed control at 62.5 g/ha [3, 4]: 0%; pest or weed control at 250 g/ha [3, 4]: 10%; pest or weed control at 15.625 g/ha [3, 5]: 0%; pest or weed control at 62.5 g/ha [3, 5]: 0%; pest or weed control at 250 g/ha [3, 5]: 40%; pest or weed control at 15.625 g/ha [3, 6]: 0%; pest or weed control at 62.5 g/ha [3, 6]: 0%; pest or weed control at 250 g/ha [3, 6]: 0%; pest or weed control at 15.625 g/ha [3, 7]: 0%; pest or weed control at 62.5 g/ha [3, 7]: 0%; pest or weed control at 250 g/ha [3, 7]: 2%; pest or weed control at 15.625 g/ha [3, 8]: 0%; pest or weed control at 62.5 g/ha [3, 8]: 1%; pest or weed control at 250 g/ha [3, 8]: 60%; pest or weed control at 15.625 g/ha [3, 9]: 0%; pest or weed control at 62.5 g/ha [3, 9]: 2%; pest or weed control at 250 g/ha [3, 9]: 20%
2 | O=c1c(-c2cc(Cl)ccc2C(F)(F)F)c(O)c2nccnc2n1CC(F)F [Compound 2.19] | 6 | 20 | 70 | 80 | 40 | 70 | 85 | 15 | 30 | 50 | 30 | 50 | 70 | 30 | 45 | 75 | 30 | 60 | 80 | 0 | pest or weed control at 62.5 g/ha [3, 4]: 10%; pest or weed control at 250 g/ha [3, 4]: 40%; pest or weed control at 15.625 g/ha [3, 5]: 0%; pest or weed control at 62.5 g/ha [3, 5]: 0%; pest or weed control at 250 g/ha [3, 5]: 60%; pest or weed control at 15.625 g/ha [3, 6]: 0%; pest or weed control at 62.5 g/ha [3, 6]: 2%; pest or weed control at 250 g/ha [3, 6]: 10%; pest or weed control at 15.625 g/ha [3, 7]: 0%; pest or weed control at 62.5 g/ha [3, 7]: 0%; pest or weed control at 250 g/ha [3, 7]: 20%; pest or weed control at 15.625 g/ha [3, 8]: 0%; pest or weed control at 62.5 g/ha [3, 8]: 50%; pest or weed control at 250 g/ha [3, 8]: 90%; pest or weed control at 15.625 g/ha [3, 9]: 0%; pest or weed control at 62.5 g/ha [3, 9]: 5%; pest or weed control at 250 g/ha [3, 9]: 60%
